The values below come from patent US20150299125A1, “PRODRUG BIPYRIDYLAMINOPYRIDINES AS SYK INHIBITORS” (MERCK SHARP & DOHME CORP., priority 2012, published 2015).

Bounds are passed on as bounds.

The target in the experiment is T1, recombinant human GST-Syk (Homo sapiens, UniProt P43405).
T1 construct: purchased Carna Biosciences 08-176
Put plainly: Homogeneous Time-Resolved Fluorescence (HTRF) assay for the recombinant human Syk enzyme. Type of experiment: biochemical. The following applies: recombinant human GST-Syk 5 pM, ATP 25 μM, read-out: IC50. On the procedure: Syk inhibition of the compounds of Formula (I) may be determined using the following assay protocol: Homogeneous Time-Resolved Fluorescence (HTRF) Assay for the Recombinant Human Syk Enzyme: A recombinant GST-hSyk fusion protein was used to measure potency of compounds to inhibit human Syk activity. […] Final volume of the reaction was 10 μL. Phosphorylation of the peptide was allowed to proceed for 45' at room temperature. To quench the reaction and detect the phosphorylated product, 2 nM of a Europium-anti-phosphotyrosine antibody (Perkin Elmer #AD0161) and 70 nM SA-APC (Perkin-Elmer #CR130-100) were added together in 15 mM Tris pH 7.5, 40 mM EDTA, 0.01% tween 20. Final volume of the quenching solution was 10 μL. The resulting HTRF signal was measured after 30 minutes on a EnVision (Perkin-Elmer) reader using a time-resolved fluorescence protocol.
A general note: Time-resolved FRET reads energy transfer from a long-lived donor to a nearby acceptor.
`COc1ccc(OC(=O)[C@H]2CC[C@H]([C@@](C)(O)c3ccc(-c4cc(C)cc(Nc5cc(C(F)F)ccn5)n4)cn3)CC2)cc1` [Example 1-28, 4-methoxyphenyl trans-4-[(1R)-1-(6-{[4-(difluoromethyl)pyridin-2-yl]amino}-4-methyl-2,3′-bipyridin-6′-yl)-1-hydroxyethyl] cyclohexanecarboxylate]: the IC50 worked out at 7.2 nM. Consider `Cc1cc(Nc2cc(C(F)F)ccn2)nc(-c2ccc([C@](C)(O)[C@H]3CC[C@H](C(=O)OCOC(=O)OCc4nccn4C)CC3)nc2)c1` [Example 2-13, ({[(1-methyl-1H-imidazol-2-yl)methoxy]carbonyl}oxy)methyl trans-4-[(1R)-1-(6-{[4-(difluoromethyl)pyridin-2-yl]amino}-4-methyl-2,3′-bipyridin-6′-yl)-1-hydroxyethyl]cyclo hexanecarboxylate], for which the IC50 stood at 34.6 nM. For the compound `Cc1cc(Nc2cc(C(F)F)ccn2)nc(-c2ccc([C@](C)(O)[C@H]3CC[C@H](C(=O)OC(C)OC(=O)c4cnn(C)c4)CC3)nc2)c1` (single isomer, unassigned) [Example 3-2b], the IC50 was 22.4 nM. Take `Cc1cc(Nc2cc(C(F)F)ccn2)nc(-c2ccc([C@](C)(O)[C@H]3CC[C@H](C(=O)OCC[S+](C)[O-])CC3)nc2)c1` (stereo partly drawn) [Example 7-3, 2-(methylsulfinyl)ethyl trans-4-[(1R)-1-(6-{[4-(difluoromethyl)pyridin-2-yl]amino}-4-methyl-2,3′-bipyridin-6′-yl)-1-hydroxyethyl]cyclohexane-carboxylate]: the IC50 was 3.3 nM. Consider `Cc1cc(Nc2cc(C(F)F)ccn2)nc(-c2ccc([C@](C)(O)[C@H]3CC[C@H](C(=O)OC[N+](C)(C4CCCCC4)C4CCCCC4)CC3)nc2)c1` [Example 5-24, N-cyclohexyl-N-{[({trans-4-[(1R)-1-(6-{[4-(difluoromethyl)pyridin-2-yl]amino}-4-methyl-2,3′-bipyridin-6′-yl)-1-hydroxyethyl]cyclohexyl}carbonyl)oxy]methyl}-N-methylcyclohexanaminium], for which the IC50 worked out at 1 nM.

With `Cc1cc(Nc2cc(C(F)F)ccn2)nc(-c2ccc([C@](C)(O)[C@H]3CC[C@H](C(=O)OC[N+](C)(C)C(C)c4ccccc4)CC3)nc2)c1` (stereo partly drawn) [Example 5-15, N-{[({trans-4-[(1R)-1-(6-{[4-(difluoromethyl)pyridin-2-yl]amino}-4-methyl-2,3′-bipyridin-6′-yl)-1-hydroxyethyl]cyclohexyl}carbonyl)oxy]methyl}-N,N-dimethyl-1-phenylethanaminium], the half-maximal inhibitory concentration (IC50) was less than 0.5 nM.

On to `CCOCC(COCC)OC(=O)OCOC(=O)[C@H]1CC[C@H]([C@@](C)(O)c2ccc(-c3cc(C)cc(Nc4cc(C(F)F)ccn4)n3)cn2)CC1` [Example 2-8, ({[2-ethoxy-1-(ethoxymethyl)ethoxy]carbonyl}oxy) methyl trans-4-[(1R)-1-(6-{[4-(difluoromethyl)pyridin-2-yl]amino}-4-methyl-2,3′-bipyridin-6′-yl)-1-hydroxyethyl]cyclo hexanecarboxylate], for which the IC50 stood at 22.8 nM. In the case of `CC[N+](CC)(COC(=O)[C@H]1CC[C@H]([C@@](C)(O)c2ccc(-c3cc(C)cc(Nc4cc(C(F)F)ccn4)n3)cn2)CC1)C1CCCCC1` [Example 5-22, N-{[({trans-4-[(1R)-1-(6-{[4-(difluoromethyl)pyridin-2-yl]amino}-4-methyl-2,3′-bipyridin-6′-yl)-1-hydroxyethyl]cyclohexyl}carbonyl)oxy]methyl}-N,N-diethylcyclohexanaminium], the IC50 amounted to 0.9 nM.

On to `CC(=O)N[C@@H](CC(C)C)C(=O)OCOC(=O)[C@H]1CC[C@H]([C@@](C)(O)c2ccc(-c3cc(C)cc(Nc4cc(C(F)F)ccn4)n3)cn2)CC1` [Example 3-7, [({trans-4-[(1R)-1-(6-{[4-(difluoromethyl)pyridin-2-yl]amino}-4-methyl-2,3′-bipyridin-6′-yl)-1-hydroxyethyl]cyclohexyl}carbonyl)oxy]methyl N-acetyl-L-leucinate], for which the IC50 turned out to be 12.7 nM. With `CCCC[N+](CCCC)(CCCC)COC(=O)[C@H]1CC[C@H]([C@@](C)(O)c2ccc(-c3cc(C)cc(Nc4cc(C(F)F)ccn4)n3)cn2)CC1` [Example 5-4, N,N-dibutyl-N-{[({trans-4-[(1R)-1-(6-{[4-(difluoromethyl)pyridin-2-yl]amino}-4-methyl-2,3′-bipyridin-6′-yl)-1-hydroxyethyl]cyclohexyl}carbonyl)oxy]methyl}butan-1-aminium], the IC50 was 1.1 nM. `Cc1cc(Nc2cc(C(F)F)ccn2)nc(-c2ccc([C@](C)(O)[C@H]3CC[C@H](C(=O)OCOC(=O)OCCOCc4ccccc4)CC3)nc2)c1` [Example 2-3, ({[2-(benzyloxy)ethoxy]carbonyl}oxy) methyl trans-4-[(1R)-1-(6-{[4-(difluoromethyl)pyridin-2-yl]amino}-4-methyl-2,3′-bipyridin-6′-yl)-1-hydroxyethyl]cyclo hexanecarboxylate]: the IC50 was 6.2 nM. As to `Cc1cc(Nc2cc(C(F)F)ccn2)nc(-c2ccc([C@](C)(O)[C@H]3CC[C@H](C(=O)OCC(C)(C)O)CC3)nc2)c1` [Example 1-1, 2-Hydroxy-2-methylpropyl trans-4-[(1R)-1-(6-{[4-(difluoromethyl)pyridin-2-yl]amino}-4-methyl-2,3′-bipyridin-6′-yl)-1-hydroxyethyl]cyclohexanecarboxylate], the IC50 was 8.1 nM. Take `Cc1cc(Nc2cc(C(F)F)ccn2)nc(-c2ccc([C@](C)(O)[C@H]3CC[C@H](C(=O)OCOC(=O)CO)CC3)nc2)c1` [Example 3-5, [(hydroxyacetyl)oxy] methyl trans-4-[(1R)-1-(6-{[4-(difluoromethyl)pyridin-2-yl]amino}-4-methyl-2,3′-bipyridin-6′-yl)-1-hydroxyethyl]cyclohexane carboxylate]: the IC50 is less than 0.5 nM.

For `Cc1cc(Nc2cc(C(F)F)ccn2)nc(-c2ccc([C@](C)(O)[C@H]3CC[C@H](C(=O)OCOC(=O)c4cnn(C)c4)CC3)nc2)c1` [Example 3-8, [({trans-4-[(1R)-1-(6-{[4-(difluoromethyl)pyridin-2-yl]amino}-4-methyl-2,3′-bipyridin-6′-yl)-1-hydroxyethyl]cyclohexyl}carbonyl)oxy]methyl 1-methyl-1H-pyrazole-4-carboxylate], the IC50 is 8.3 nM.

Regarding `Cc1cc(Nc2cc(C(F)F)ccn2)nc(-c2ccc([C@](C)(O)[C@H]3CC[C@H](C(=O)OCOC(=O)OCCS(C)(=O)=O)CC3)nc2)c1` [Example 7-7, ({[2-(methylsulfonyl)ethoxy]carbonyl}oxy)methyl trans-4-[(1R)-1-(6-{[4-(difluoromethyl)pyridin-2-yl]amino}-4-methyl-2,3′-bipyridin-6′-yl)-1-hydroxyethyl]cyclohexane-carboxylate], the IC50 was found to be 4.5 nM.

A word on the IC50: it is the concentration that gives 50% inhibition.
